From PubChem BioAssay AID720726 (Broad Institute, 2013) come the findings set out here.

In this test the test system is Huh7 miR-122 levels, qRT-PCR, 48 h. In words: miR-122 upregulation in Huh7 hepatoma cells – cell-based, qRT-PCR, dry powder, orthogonal assay, dose response (AID 720726). On the technique in general: In qPCR the cycle at which signal appears reflects the starting amount.

Structures are written as SMILES.

As to `CCCC#Cc1ccc2c(c1)O[C@H](CN(C)C(=O)c1ccncc1)[C@H](C)CN([C@@H](C)CO)S2(=O)=O`, the AC40 was 3.54 µM.
